Measured values: patent publication US20060100168A1, “Method of treating cancer using adenosine and its analogs” (The Trustee of Boston University, priority 2002, published 2006)
“Also recorded” adds a separate entry of the source.

Legend:
[1] = test system: MCF-7 cells; assay: Anchorage-dependent growth assay (viable cell count, Trypan Blue); format: cell-based, human; conditions: MCF-7
Description: Anchorage-dependent growth assay: Cells were plated into 6-well plates and grown overnight before treatments. The seeding concentration of MCF-7 cells was 2×10^5/well, which was determined during preliminary experiments as not allowing the cells to reach confluency within 3 days. Cells were treated either with vehicle or ligands, as indicated. Cells were detached by incubation with trypsin (Invitrogen, Carlsbad, Calif.) and counted with a hemacytometer before or after treatment.

[2] = test system: MCF-7 cells; assay: Apoptosis by propidium iodide staining and flow cytometry (sub-diploid events); format: cell-based, human; conditions: 100 μM
Description: Flow Cytometry and Apoptosis Analysis: Cells were detached from tissue culture plates by trypsin treatment. Cells were collected by centrifugation at 1200 g for 5 minutes and washed once with PBS. Staining of cells with propidium iodide and analysis on a flow cytometer (FACScan, Becton Dickinson, Research Triangle Park, N.C.) was performed as described before (42). Data were analyzed with CellQuest software (Becton Dickinson, Research Triangle Park, N.C.). The percentage of cells appearing with a ploidy level smaller than a diploid content was calculated as an estimate of cells undergoing apoptosis.

[3] = test system: cyclin levels in HeLa cells; assay: Western blot of cyclins in HeLa cells; format: cell-based, human; conditions: data not shown
Description: Western Blot Analysis: Cells were washed three times in cold 1×PBS, and collected by scraping on ice. Western blot analysis was performed as we described before with the chemiluminescence method (41). Antibodies used in this study were: ERα (NeoMarkers, Ab-15), Cyclin A (Santa Cruz Biotech, H-432), Cyclin B1 (Santa Cruz Biotech, H-433), Cyclin E (Upstate Biotech, HE-12), p27 (Santa Cruz Biotech, F-8). ERα antibody was used at 1:100 dilutions. Cyclin A, cyclin B1 and p27 antibodies were used at 1:500 dilutions. Cyclin E antibody was used at 1:1000 dilutions.

[4] = test system: MCF-7+A3 cells (stably transfected with human A3AR cDNA); assay: Soft agar assay with MCF-7 cells stably expressing A3 adenosine receptor; format: cell-based; conditions: MCF-7+A3 pool vs MCF-7
Description: Anchorage-independent growth (soft agar) assay: Soft agar assay was performed as described (40) with the following modifications. Ligands were added into the bottom and top agar before plating into 6-well plates. Cells were treated with trypsin (Invitrogen, Carlsbad, Calif.) for 5 minutes in a 37° C. incubator and pipetted several times so that most cells were in single cell forms. Cells were counted with a hemacytometer (Hausser Scientific/VWR, So. Plainfield, N.J.), and 10,000 cells were mixed with top agar and plated into each well. After the top agar had solidified, two ml of medium containing the same treatment was added on top of the agar. This covering medium was changed every two days during culture. After two weeks of culture, each well was counted for the number of colonies formed on an Olympus IX70 microscope under 40× optical amplification. A cell colony was defined as any cluster of cells that contain more than 3 cells. The average of counts from 3 random optical fields for each well was taken as the colony number and analyzed. Each treatment was performed in triplicates. The averages and standard deviations shown in the figures were calculated based on triplicate experiments. […] Clones of cells grown up were analyzed for their A3AR expression using RT-PCR.

[5] = test system: Akt (Ser 473); assay: Akt phosphorylation in MCF-7 cells; format: cell-based, human; conditions: not shown

Question: What does the source list for `CNC(=O)[C@H]1O[C@@H](n2cnc3c(NCc4cccc(I)c4)ncnc32)[C@H](O)[C@@H]1O` [IB-MECA, N^6-(3-iodobenzyl)adenosine-5′-N-methyluronamide]?
Answer: Cell counts after treatment compared to day 0, in words ([1]; 100 μM, three days, trypan blue negative cells): decreased only mildly; also recorded: did not show much change in the number of viable cells; Cell Growth ([1]; 2 days of treatment, compounds at 100 μM, except adenosine (500 μM) and inosine (1 mM), normalized to vehicle control (set to 1), negative = decrease vs count before treatment, average ± SD, three experiments): −0.19 ± 0.06; Apoptosis, in words ([2]; two days): non significant change; Apoptosis ([2]; 2 days of treatment, except adenosine (500 μM) and inosine (1 mM), number of apoptotic cells compared to vehicle control (set to 1), average ± SD): 1.12 ± 0.02; Cyclin levels [3]: no significant change; Dosage response of colony formation compared to normal MCF-7 cells [4]: almost identical dosage response; Akt phosphorylation (at Ser 473) [5]: induced Akt phosphorylation
